Source: patent US9351987B2, “Compositions for treating heartworm infestation” (CEVA SANTE ANIMALE, priority 2010, dated 2016)
Like-named read-outs stand apart in the source and are kept apart here.

Experiments:
[1] = Plasma ivermectin concentration after ivermectin implant in dogs; assay type: in vivo, dog
Source text: The concentrations of ivermectin (ng/mL) in the plasma, collected in the jugular vein at day 0 to day 429, are presented in Table 2.
The concentrations of ivermectin in the plasma, collected in the jugular vein, have been evaluated during 429 days for dogs A and […] (Table 2, Example 1) or just dosed until D365 for dogs C and D.

[2] = test system: Dirofilaria larvae; test: Effective ivermectin rate against Dirofilaria larvae; assay type: in vivo; details: established by the present inventors
Description: Currently approved dosages of ivermectin are about 6 mcg/kg orally or 200 mcg/kg subcutaneously. […] Cunningham C P et al., (Am. J. Vet, Res., 2006, 67) brought evidence that this effective rate might be around 0.2 ng/mL of ivermectin in the plasma.
Also, the formulations according to the present invention provide a long term protection, e.g., at least 6 months, 12 months, or 18 months up to 24 months against infections caused by parasites.

[3] = 14-week oral study, cited from earlier work
[4] = 36-day study, beagle dogs, cited from earlier work
[5] = estimated from reports from non recommended use of the drug; cited from earlier work
[6] = test system: Dirofilaria larvae; details: cited from earlier work

For `CC[C@H](C)[C@H]1O[C@]2(CC[C@@H]1C)C[C@@H]1C[C@@H](C/C=C(\C)[C@@H](O[C@H]3C[C@H](OC)[C@@H](O[C@H]4C[C@H](OC)[C@@H](O)[C@H](C)O4)[C@H](C)O3)[C@@H](C)/C=C/C=C3\CO[C@@H]4[C@H](O)C(C)=C[C@@H](C(=O)O1)[C@]34O)O2` [Ivermectin], the “Ivermectin concentration in plasma” value ([1]; dog A (6% ivermectin implant), day 1) was 6.25 ng/mL, the “Ivermectin concentration in plasma” value ([1]; dog A (6% ivermectin implant), day 2) was 5.29 ng/mL and the “Ivermectin concentration in plasma” value ([1]; dog A (6% ivermectin implant), day 4) was 5.25 ng/mL. The “Ivermectin concentration in plasma” value ([1]; dog A (6% ivermectin implant), day 10) was 2.56 ng/mL, the “Ivermectin concentration in plasma” value ([1]; dog A (6% ivermectin implant), day 21) was 1.35 ng/mL and the “Ivermectin concentration in plasma” value ([1]; dog A (6% ivermectin implant), day 30) was 0.91 ng/mL. For the same molecule, the “Ivermectin concentration in plasma” value ([1]; dog A (6% ivermectin implant), day 39) was 1.09 ng/mL, the “Ivermectin concentration in plasma” value ([1]; dog A (6% ivermectin implant), day 60) was 0.76 ng/mL and the “Ivermectin concentration in plasma” value ([1]; dog A (6% ivermectin implant), day 78) was 0.67 ng/mL. The “Ivermectin concentration in plasma” value ([1]; dog A (6% ivermectin implant), day 99) was 0.26 ng/mL, the “Ivermectin concentration in plasma” value ([1]; dog A (6% ivermectin implant), day 120) was 0.44 ng/mL and the “Ivermectin concentration in plasma” value ([1]; dog A (6% ivermectin implant), day 141) was 0.28 ng/mL. The “Ivermectin concentration in plasma” value ([1]; dog A (6% ivermectin implant), day 162) was 0.18 ng/mL, the “Ivermectin concentration in plasma” value ([1]; dog A (6% ivermectin implant), day 183) was 0.13 ng/mL and the “Ivermectin concentration in plasma” value ([1]; dog A (6% ivermectin implant), day 211) was 0.14 ng/mL. The “Ivermectin concentration in plasma” value ([1]; dog A (6% ivermectin implant), day 239) was 0.10 ng/mL, the “Ivermectin concentration in plasma” value ([1]; dog A (6% ivermectin implant), day 266) was 0.12 ng/mL and the “Ivermectin concentration in plasma” value ([1]; dog A (6% ivermectin implant), day 295) was 0.07 ng/mL. For the same molecule, the “Ivermectin concentration in plasma” value ([1]; dog A (6% ivermectin implant), day 329) was 0.06 ng/mL, the “Ivermectin concentration in plasma” value ([1]; dog A (6% ivermectin implant), day 365) was 0.14 ng/mL and the “Ivermectin concentration in plasma” value ([1]; dog A (6% ivermectin implant), day 380) was 0.14 ng/mL. For the same molecule, the “Ivermectin concentration in plasma” value ([1]; dog A (6% ivermectin implant), day 395) was 0.17 ng/mL, the “Ivermectin concentration in plasma” value ([1]; dog A (6% ivermectin implant), day 429) was 0.20 ng/mL and the “Ivermectin concentration in plasma” value ([1]; dog B (6% ivermectin implant), day 1) was 3.50 ng/mL. For the same molecule, the “Ivermectin concentration in plasma” value ([1]; dog B (6% ivermectin implant), day 2) was 3.04 ng/mL, the “Ivermectin concentration in plasma” value ([1]; dog B (6% ivermectin implant), day 4) was 2.62 ng/mL and the “Ivermectin concentration in plasma” value ([1]; dog B (6% ivermectin implant), day 10) was 0.97 ng/mL. The “Ivermectin concentration in plasma” value ([1]; dog B (6% ivermectin implant), day 21) was 1.92 ng/mL, the “Ivermectin concentration in plasma” value ([1]; dog B (6% ivermectin implant), day 30) was 1.01 ng/mL and the “Ivermectin concentration in plasma” value ([1]; dog B (6% ivermectin implant), day 39) was 1.02 ng/mL. The “Ivermectin concentration in plasma” value ([1]; dog B (6% ivermectin implant), day 60) was 0.51 ng/mL, the “Ivermectin concentration in plasma” value ([1]; dog B (6% ivermectin implant), day 78) was 0.29 ng/mL and the “Ivermectin concentration in plasma” value ([1]; dog B (6% ivermectin implant), day 99) was 0.11 ng/mL. The “Ivermectin concentration in plasma” value ([1]; dog B (6% ivermectin implant), day 120) was 0.30 ng/mL, the “Ivermectin concentration in plasma” value ([1]; dog B (6% ivermectin implant), day 141) was 0.23 ng/mL and the “Ivermectin concentration in plasma” value ([1]; dog B (6% ivermectin implant), day 162) was 0.10 ng/mL. The “Ivermectin concentration in plasma” value ([1]; dog B (6% ivermectin implant), day 183) was 0.11 ng/mL, the “Ivermectin concentration in plasma” value ([1]; dog B (6% ivermectin implant), day 211) was 0.24 ng/mL and the “Ivermectin concentration in plasma” value ([1]; dog B (6% ivermectin implant), day 239) was 0.05 ng/mL. The “Ivermectin concentration in plasma” value ([1]; dog B (6% ivermectin implant), day 266) was 0.10 ng/mL, the “Ivermectin concentration in plasma” value ([1]; dog B (6% ivermectin implant), day 295) was 0.06 ng/mL and the “Ivermectin concentration in plasma” value ([1]; dog B (6% ivermectin implant), day 365) was 0.06 ng/mL. The “Ivermectin concentration in plasma” value ([1]; dog B (6% ivermectin implant), day 380) was 0.06 ng/mL, the “Ivermectin concentration in plasma” value ([1]; dog B (6% ivermectin implant), day 395) was 0.08 ng/mL and the “Ivermectin concentration in plasma” value ([1]; dog B (6% ivermectin implant), day 429) was 0.06 ng/mL. The “Ivermectin concentration in plasma” value ([1]; dog C (4.5% ivermectin implant), day 1) was 6.93 ng/mL, the “Ivermectin concentration in plasma” value ([1]; dog C (4.5% ivermectin implant), day 2) was 6.42 ng/mL and the “Ivermectin concentration in plasma” value ([1]; dog C (4.5% ivermectin implant), day 4) was 4.77 ng/mL. The “Ivermectin concentration in plasma” value ([1]; dog C (4.5% ivermectin implant), day 10) was 2.64 ng/mL, the “Ivermectin concentration in plasma” value ([1]; dog C (4.5% ivermectin implant), day 21) was 2.14 ng/mL and the “Ivermectin concentration in plasma” value ([1]; dog C (4.5% ivermectin implant), day 30) was 1.79 ng/mL. The “Ivermectin concentration in plasma” value ([1]; dog C (4.5% ivermectin implant), day 39) was 1.74 ng/mL, the “Ivermectin concentration in plasma” value ([1]; dog C (4.5% ivermectin implant), day 60) was 0.28 ng/mL and the “Ivermectin concentration in plasma” value ([1]; dog C (4.5% ivermectin implant), day 78) was 0.17 ng/mL. The “Ivermectin concentration in plasma” value ([1]; dog C (4.5% ivermectin implant), day 99) was 0.21 ng/mL, the “Ivermectin concentration in plasma” value ([1]; dog C (4.5% ivermectin implant), day 120) was 0.27 ng/mL and the “Ivermectin concentration in plasma” value ([1]; dog C (4.5% ivermectin implant), day 141) was 0.26 ng/mL. The “Ivermectin concentration in plasma” value ([1]; dog C (4.5% ivermectin implant), day 162) was 0.17 ng/mL, the “Ivermectin concentration in plasma” value ([1]; dog C (4.5% ivermectin implant), day 183) was 0.17 ng/mL and the “Ivermectin concentration in plasma” value ([1]; dog C (4.5% ivermectin implant), day 211) was 0.15 ng/mL. The “Ivermectin concentration in plasma” value ([1]; dog C (4.5% ivermectin implant), day 239) was 0.11 ng/mL, the “Ivermectin concentration in plasma” value ([1]; dog C (4.5% ivermectin implant), day 266) was 0.13 ng/mL and the “Ivermectin concentration in plasma” value ([1]; dog C (4.5% ivermectin implant), day 295) was 0.13 ng/mL. The “Ivermectin concentration in plasma” value ([1]; dog C (4.5% ivermectin implant), day 329) was 0.06 ng/mL, the “Ivermectin concentration in plasma” value ([1]; dog C (4.5% ivermectin implant), day 365) was 0.16 ng/mL and the “Ivermectin concentration in plasma” value ([1]; dog D (3% ivermectin implant), day 1) was 7.63 ng/mL. The “Ivermectin concentration in plasma” value ([1]; dog D (3% ivermectin implant), day 2) was 6.95 ng/mL, the “Ivermectin concentration in plasma” value ([1]; dog D (3% ivermectin implant), day 4) was 4.35 ng/mL and the “Ivermectin concentration in plasma” value ([1]; dog D (3% ivermectin implant), day 10) was 3.82 ng/mL. For the same molecule, the “Ivermectin concentration in plasma” value ([1]; dog D (3% ivermectin implant), day 21) was 1.23 ng/mL, the “Ivermectin concentration in plasma” value ([1]; dog D (3% ivermectin implant), day 30) was 1.54 ng/mL and the “Ivermectin concentration in plasma” value ([1]; dog D (3% ivermectin implant), day 39) was 1.15 ng/mL. For the same molecule, the “Ivermectin concentration in plasma” value ([1]; dog D (3% ivermectin implant), day 60) was 0.84 ng/mL, the “Ivermectin concentration in plasma” value ([1]; dog D (3% ivermectin implant), day 78) was 0.52 ng/mL and the “Ivermectin concentration in plasma” value ([1]; dog D (3% ivermectin implant), day 99) was 0.69 ng/mL. For the same molecule, the “Ivermectin concentration in plasma” value ([1]; dog D (3% ivermectin implant), day 120) was 0.87 ng/mL, the “Ivermectin concentration in plasma” value ([1]; dog D (3% ivermectin implant), day 141) was 0.65 ng/mL and the “Ivermectin concentration in plasma” value ([1]; dog D (3% ivermectin implant), day 162) was 0.45 ng/mL. For the same molecule, the “Ivermectin concentration in plasma” value ([1]; dog D (3% ivermectin implant), day 183) was 0.51 ng/mL, the “Ivermectin concentration in plasma” value ([1]; dog D (3% ivermectin implant), day 211) was 0.29 ng/mL and the “Ivermectin concentration in plasma” value ([1]; dog D (3% ivermectin implant), day 239) was 0.18 ng/mL. For the same molecule, the “Ivermectin concentration in plasma” value ([1]; dog D (3% ivermectin implant), day 266) was 0.22 ng/mL, the “Ivermectin concentration in plasma” value ([1]; dog D (3% ivermectin implant), day 295) was 0.13 ng/mL and the “Ivermectin concentration in plasma” value ([1]; dog D (3% ivermectin implant), day 329) was 0.13 ng/mL. For the same molecule, the “Ivermectin concentration in plasma” value ([1]; dog D (3% ivermectin implant), day 365) was 0.09 ng/mL, the “Effective rate of ivermectin in the plasma” value [2] was “around 0.1 ng/mL” and the “No Observable Effect Levels (NOEL)” value ([3]; beagle dogs (4/sex/group)) was 0.5 mg/kg bw. For the same molecule, the “Signs developed (four dogs, killed prior to the end of the study)” value ([3]; beagle dogs, 2.0 mg/kg bw group) was “tremors, ataxia, anorexia and dehydration”, the Signs observed ([3]; beagle dogs, 1.0 and 2.0 mg/kg bw) was “mydriasis and slight weight loss” and the “Time to steady-state of H2B1a in plasma” value ([4]; oral 0.5 and 2.0 mg/kg bw) was “after about three weeks”. The “Average increase in plasma levels on a four-fold increase in the dose” value ([4]; oral 0.5 vs 2.0 mg/kg bw) was “eight-fold”, the “Share of collie dogs highly sensitive to ivermectin” value [5] was “Approximately 30%” and the “Effective rate of ivermectin in the plasma” value ([6]; Cunningham C P et al., Am. J. Vet. Res., 2006, 67) was “around 0.2 ng/mL”. The “Effect on Dirofilaria larvae” value ([6]; ivermectin administered per se at 6 mcg/kg, generally reported) was “able to kill efficiency one month aged Dirofilaria larvae”.
